EC50, pKDapp and Kd data for three compounds are collected here from article PMC11876601 (Molecular Systems Biology, 2025).

Like-named read-outs stand apart in the source and are kept apart here.

The subject of one experiment is PRKAB1. The arrangement: method as in Klaeger et al. (2017). The conditions noted are these: lysate 4 cell line mix (Colo205, K-562, MV-4-11, and SK-N-BE(2)), Kinobeads y, ref Klaeger et al. (2017); cited from earlier work.
For a further experiment, the system named is MARK3. The conditions noted are these: cited from earlier work.
A further experiment deals with TGFBR1. The arrangement: method as in Klaeger et al. (2017). The conditions noted are these: lysate 4 cell line mix (Colo205, K-562, MV-4-11, and SK-N-BE(2)), Kinobeads y, ref Klaeger et al. (2017); cited from earlier work.
The next experiment has as its system AURKB. The following applies: cited from earlier work.
A further experiment concerns ABL1. The following applies: ABL1, 5 cell line mix lysate, Kinobeads ε, ref Reinecke et al. (2023), cited from earlier work.
In another experiment the test system is FLT4. The arrangement: method as in Reinecke et al. (2023). The following applies: FLT4, 5 cell line mix lysate, Kinobeads ε, ref Reinecke et al. (2023), cited from earlier work.
The subject of a further experiment is ULK1. The arrangement: method as in Reinecke et al. (2023). The following applies: ULK1, 5 cell line mix lysate, Kinobeads ε, ref Reinecke et al. (2023), cited from earlier work.
A further experiment concerns MAPK7. The arrangement: method as in Reinecke et al. (2023). The conditions noted are these: MAPK7, 5 cell line mix lysate, Kinobeads ε, ref Reinecke et al. (2023), cited from earlier work.
In the next experiment the target is INCENP. The arrangement: method as in Reinecke et al. (2023). The conditions noted are these: 5 cell line mix lysate, Kinobeads ε, ref Reinecke et al. (2023), cited from earlier work.
Another experiment relates to PSN-1. Briefly: cells. The arrangement: Viability of PDAC cell lines, ATPlite luminescence, 11-dose single-agent curve fit. The following applies: Homo sapiens, PSN1, 72 h, read-out: EC50 [nM]. In outline:
(§1)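 cells (1000 to 5000 per well) seeded 24 h before drug addition in a screen at 0.2% final DMSO. Controls were drug-free wells (negative) and 5 µM staurosporine (positive).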

The next experiment relates to Capan-1. Briefly: cells. The following applies: Homo sapiens, CAPAN-1, 72 h, read-out: EC50 [nM]. The arrangement: Viability of PDAC cell lines, ATPlite luminescence, 11-dose single-agent curve fit. In outline: as §1
Another experiment concerns HuP-T4. Briefly: cells. The arrangement: Viability of PDAC cell lines, ATPlite luminescence, 11-dose single-agent curve fit. The following applies: Homo sapiens, HuP-T4, 72 h, read-out: EC50 [nM]. In outline: as §1
Another experiment relates to HPDE. Briefly: cells. The arrangement: Viability of PDAC cell lines, ATPlite luminescence, 11-dose single-agent curve fit. The following applies: HPDE, 72 h, read-out: EC50 [nM]. Put shortly: as §1
In the next experiment the test system is Colo-357. Kind of experiment: cells. The arrangement: Viability of PDAC cell lines, ATPlite luminescence, 11-dose single-agent curve fit. The conditions noted are these: Homo sapiens, COLO357, 72 h, read-out: EC50 [nM]. Put shortly: as §1
Another experiment concerns PANC-1. Briefly: cells. The arrangement: Viability of PDAC cell lines, ATPlite luminescence, 11-dose single-agent curve fit. The conditions noted are these: Homo sapiens, PANC-1, 72 h, read-out: EC50 [nM]. Put shortly:
as §1

Where [1] appears, read: MARK3, 5 cell line mix lysate, Kinobeads ε, ref Reinecke et al. (2023).
Where [2] appears, read: 5 cell line mix lysate, Kinobeads ε, ref Reinecke et al. (2023).

One may read the EC50 as the concentration that produces a half-maximal response. In the case of `C[C@]12O[C@H](C[C@]1(O)CO)n1c3ccccc3c3c4c(c5c6ccccc6n2c5c31)CNC4=O` [Lestaurtinib], the EC50 in the experiment with PRKAB1 is 1.79 µM; with MARK3 (MARK3, 4 cell line mix lysate, Kinobeads y, ref Klaeger et al. (2017)), […]; in the experiment with TGFBR1 it was […]; in the experiment with AURKB (4 cell line mix lysate, Kinobeads y, ref Klaeger et al. (2017)), […].

Regarding `COc1cc(N2CCC(N3CCN(C)CC3)CC2)ccc1Nc1ncc(Cl)c(Nc2ccccc2P(C)(C)=O)n1` [Brigatinib], the EC50 is 0.25 µM in the experiment with MARK3 (setting [1]); 3.46 µM with ABL1; 1.85 µM in the experiment on AURKB (setting [2]); 0.369 µM in the experiment on FLT4; 0.0567 µM with ULK1; 1.06 µM in the experiment on MAPK7. In addition, in the experiment on INCENP, the concentration for a half-maximal effect (EC50) was 1.16 µM. Besides, the pKDapp is given as 6.71 on MARK3 (setting [1]); 5.72 on ABL1; 5.97 at AURKB (setting [2]); 6.43 on FLT4; 7.42 at ULK1; 6.08 on MAPK7. The pKDapp at INCENP was 5.99. Also, the Kd at MARK3 (MARK3, 5 cell line mix lysate, Kinobeads ε, ref Reinecke et al. (2023), read-out: KDapp) was 0.193 µM; on ABL1 (read-out: KDapp) it was 1.89 µM; at AURKB (5 cell line mix lysate, Kinobeads ε, ref Reinecke et al. (2023), read-out: KDapp) it was 1.08 µM; on FLT4 (read-out: KDapp), 0.369 µM; on ULK1 (read-out: KDapp), 0.0379 µM; on MAPK7 (read-out: KDapp) it was 0.828 µM. The Kd on INCENP (read-out: KDapp) was 1.03 µM.

For `CCN1CCN(Cc2ccc(Nc3ncc(F)c(-c4cc(F)c5nc(C)n(C(C)C)c5c4)n3)nc2)CC1` [Abemaciclib], the EC50 in the experiment with PSN-1 is 151 nM; in the experiment with Capan-1 it was 245 nM; in the experiment on HuP-T4, 7.93 nM; in the experiment on HPDE, over 10000 nM; with Colo-357, 160 nM; in the experiment with PANC-1 it was 5540 nM.
